Assay results: patent US10344049B2, “Substituted steroids for the treatment of cancer” (AQUAVAN TECHNOLOGY CO., LTD., priority 2017, dated 2019)
Where two headings read alike, the source gives them in different places.

Columns and labels:
Assay type in all cases: cell-based
[1] = test system: human Glioblastoma cells U87-MG; test: Cell viability test (Resazurin), U87-MG cells; design: evaluation of ability to inhibit cell growth activity (IC50): scale not given here
Procedure: (§1) Cell viability was determined with Resazurin (at a final concentration of 25 μg/mL).

[2] = test system: human leukemia cells U937; test: Cell viability test (Resazurin), U937 cells
Procedure: as §1

[3] = test system: human breast cancer cells MDA-MB-231; test: Cell viability test (Resazurin), MDA-MB-231 cells; design: evaluation of ability to inhibit cell growth activity (IC50): scale not given here
Procedure: as §1

[4] = test system: human colorectal cancer cells SW-480; test: Cell viability test (Resazurin), SW480 cells
Procedure: as §1

[5] = test system: human liver cancer cells Mahlavu; test: Cell viability test (Resazurin), Mahlavu cells
Procedure: as §1

[6] = test system: African green monkey kidney cells Vero; test: Cell viability test (Resazurin), Vero cells
Procedure: as §1

[7] = test system: human breast cancer cells MDA-MB-468; test: Cell viability test (Resazurin), MDA-MB-468 cells
Procedure: as §1

[8] = test system: human lung cancer cells A549; test: Cell viability test (Resazurin), A549 cells; design: evaluation of ability to inhibit cell growth activity (IC50): scale not given here
Procedure: as §1

[9] = Homo sapiens, U-87 MG, 48 h, 0.1% FCS, Resazurin, read-out: inhibitory concentrations of cell growth activity IC50
[10] = Homo sapiens, U-87 MG, grade of the IC50 of Table 2, read-out: evaluation of ability to inhibit cell growth activity (IC50)
[11] = Homo sapiens, U-937, 48 h, U937 cells, 48 hours, 0.1% FCS, Resazurin, read-out: inhibitory concentrations of cell growth activity IC50
[12] = Homo sapiens, U-937, U937 cells, grade of the IC50 of Table 2, read-out: evaluation of ability to inhibit cell growth activity (IC50)
[13] = Homo sapiens, MDA-MB-231, 48 h, MDA-MB-231 cells, 48 hours, 0.1% FCS, Resazurin, read-out: inhibitory concentrations of cell growth activity IC50
[14] = Homo sapiens, MDA-MB-231, MDA-MB-231 cells, grade of the IC50 of Table 2, read-out: evaluation of ability to inhibit cell growth activity (IC50)
[15] = Homo sapiens, SW480, 48 h, SW480 cells, 48 hours, 0.1% FCS, Resazurin, read-out: inhibitory concentrations of cell growth activity IC50
[16] = Homo sapiens, SW480, SW480 cells, grade of the IC50 of Table 2, read-out: evaluation of ability to inhibit cell growth activity (IC50)
[17] = Homo sapiens, Mahlavu, 48 h, 0.1% FCS, Resazurin, read-out: inhibitory concentrations of cell growth activity IC50
[18] = Homo sapiens, Mahlavu, grade of the IC50 of Table 2, read-out: evaluation of ability to inhibit cell growth activity (IC50)
[19] = Chlorocebus sabaeus, Vero, 48 h, 0.1% FCS, Resazurin, read-out: inhibitory concentrations of cell growth activity IC50
[20] = Chlorocebus sabaeus, Vero, grade of the IC50 of Table 2, read-out: evaluation of ability to inhibit cell growth activity (IC50)
[21] = Homo sapiens, MDA-MB-468, 48 h, MDA-MB-468 cells, 48 hours, 0.1% FCS, Resazurin, read-out: inhibitory concentrations of cell growth activity IC50
[22] = Homo sapiens, MDA-MB-468, MDA-MB-468 cells, grade of the IC50 of Table 2, read-out: evaluation of ability to inhibit cell growth activity (IC50)
[23] = Homo sapiens, A549, 48 h, A549 cells, 48 hours, 0.1% FCS, Resazurin, read-out: inhibitory concentrations of cell growth activity IC50
[24] = Homo sapiens, A549, A549 cells, grade of the IC50 of Table 2, read-out: evaluation of ability to inhibit cell growth activity (IC50)
[25] = 48 hours, 0.1% FCS, Resazurin, read-out: inhibitory concentrations of cell growth activity IC50
[26] = grade of the IC50 of Table 2, read-out: evaluation of ability to inhibit cell growth activity (IC50)
[27] = U937 cells, 48 hours, 0.1% FCS, Resazurin, read-out: inhibitory concentrations of cell growth activity IC50
[28] = U937 cells, grade of the IC50 of Table 2, read-out: evaluation of ability to inhibit cell growth activity (IC50)
[29] = MDA-MB-231 cells, 48 hours, 0.1% FCS, Resazurin, read-out: inhibitory concentrations of cell growth activity IC50
[30] = MDA-MB-231 cells, grade of the IC50 of Table 2, read-out: evaluation of ability to inhibit cell growth activity (IC50)
[31] = SW480 cells, 48 hours, 0.1% FCS, Resazurin, read-out: inhibitory concentrations of cell growth activity IC50
[32] = SW480 cells, grade of the IC50 of Table 2, read-out: evaluation of ability to inhibit cell growth activity (IC50)
[33] = MDA-MB-468 cells, 48 hours, 0.1% FCS, Resazurin, read-out: inhibitory concentrations of cell growth activity IC50
[34] = MDA-MB-468 cells, grade of the IC50 of Table 2, read-out: evaluation of ability to inhibit cell growth activity (IC50)
[35] = A549 cells, 48 hours, 0.1% FCS, Resazurin, read-out: inhibitory concentrations of cell growth activity IC50
[36] = A549 cells, grade of the IC50 of Table 2, read-out: evaluation of ability to inhibit cell growth activity (IC50)
[37] = U937 cells, grade of the IC50 of Table 2

Row | Structure (SMILES) | IC50 [4, 15] [µM] | IC50 [5, 17] [µM] | IC50 [5, 18] [µM] | IC50 [6, 20] [µM] | IC50 [8, 24] [µM] | IC50 [1, 25] [µM] | IC50 [1, 26] [µM] | IC50 [2, 27] [µM] | IC50 [2, 28] [µM] | IC50 [3, 29] [µM] | IC50 [3, 30] [µM] | IC50 [4, 31] [µM] | IC50 [4, 32] [µM] | IC50 [5, 25] [µM] | IC50 [5, 26] [µM] | IC50 [6, 25] [µM] | IC50 [6, 26] [µM] | IC50 [7, 33] [µM] | IC50 [7, 34] [µM] | IC50 [8, 35] [µM] | further results
1 | CC(=O)O[C@@H](C=C(C)C)C[C@@H](C)[C@H]1CC[C@@]2(C)[C@@H]3[C@@H](O)C=C4[C@@H](CC[C@H](O)C4(C)C)[C@]3(C=O)CC[C@]12C [Compound 10] | 17.9 | 19.4 | 16 to 64 | 16 to 64 | 8 to 16 | – | – | – | – | – | – | – | – | – | – | – | – | – | – | – | IC50 [1, 9]: 10.7 µM; IC50 [1, 10]: 8 to 16 µM; evaluation of ability to inhibit cell growth activity (IC50) ([1]; grade of the IC50 of Table 2): ◯; IC50 [2, 11]: 5.92 µM; IC50 [2, 12]: < 8 µM; IC50 [3, 13]: 10.7 µM; IC50 [3, 14]: 8 to 16 µM; evaluation of ability to inhibit cell growth activity (IC50) ([3]; MDA-MB-231 cells, grade of the IC50 of Table 2): ◯; IC50 [4, 16]: 16 to 64 µM; IC50 [6, 19]: 19.2 µM; IC50 [7, 21]: 20.3 µM; IC50 [7, 22]: 16 to 64 µM; evaluation of ability to inhibit cell growth activity (IC50) ([8]; A549 cells, grade of the IC50 of Table 2): ◯; IC50 [8, 23]: 9.81 µM
2 | CC(C)=CC(=O)C[C@@H](C)[C@H]1CC[C@@]2(C)[C@@H]3[C@@H](O)C=C4[C@@H](CC[C@H](O)C4(C)C)[C@]3(C=O)CC[C@]12C [Compound 11] | > 256 | > 256 | > 256 | > 256 | > 256 | – | – | – | – | – | – | – | – | – | – | – | – | – | – | – | IC50 [1, 9]: > 256 µM; IC50 [1, 10]: > 256 µM; IC50 [2, 11]: 84.2 µM; IC50 [2, 12]: 64 to 256 µM; IC50 [3, 13]: > 256 µM; IC50 [3, 14]: > 256 µM; IC50 [4, 16]: > 256 µM; IC50 [6, 19]: > 256 µM; IC50 [7, 21]: > 256 µM; IC50 [7, 22]: > 256 µM; IC50 [8, 23]: > 256 µM
3 | CC(C)=C[C@@H](C[C@@H](C)[C@H]1CC[C@@]2(C)[C@@H]3[C@@H](O)C=C4[C@@H](CC[C@H](O)C4(C)C)[C@]3(C=O)CC[C@]12C)O[C@@H]1O[C@H](CO)[C@@H](O)[C@H](O)[C@H]1O [Compound 12] | – | – | – | – | – | 49 | 16 to 64 | 58.6 | 16 to 64 | 41.7 | 16 to 64 | 98.6 | 64 to 256 | 70.3 | 64 to 256 | 124 | 64 to 256 | 56.5 | 16 to 64 | 100 | IC50 [8, 36]: 64 to 256 µM
4 | CC(C)=C[C@H](O)C[C@@H](C)[C@H]1CC[C@@]2(C)[C@@H]3[C@@H](O[C@@H]4O[C@H](CO)[C@@H](O)[C@H](O)[C@H]4O)C=C4[C@@H](CC[C@H](O)C4(C)C)[C@]3(C=O)CC[C@]12C [Compound 13] | – | – | – | – | – | 103 | 64 to 256 | 32.5 | 16 to 64 | 59.4 | 16 to 64 | 67.2 | 64 to 256 | > 256 | > 256 | > 256 | > 256 | 58.3 | 16 to 64 | 198 | IC50 [8, 36]: 64 to 256 µM
5 | C[C@H](C/C=C/C(C)(C)O)[C@H]1CC[C@@]2(C)[C@@H]3[C@@H](O[C@@H]4O[C@H](CO)[C@@H](O)[C@H](O)[C@H]4O)C=C4[C@@H](CC[C@H](O)C4(C)C)[C@]3(C=O)CC[C@]12C [Compound 14] | – | – | – | – | – | 58.5 | 16 to 64 | 19.8 | 16 to 64 | 32.8 | 16 to 64 | 64.2 | 64 to 256 | > 256 | > 256 | > 256 | > 256 | 39.3 | 16 to 64 | 171 | IC50 [8, 36]: 64 to 256 µM
6 | CO[C@@H]1O[C@]23C=C[C@@H]4[C@@]1(CC[C@]1(C)[C@@H]([C@H](C)C/C=C/C(C)(C)OC)CC[C@@]41C)[C@@H]2CC[C@H](O)C3(C)C [Compound 15] | > 256 | > 256 | > 256 | > 256 | > 256 | – | – | 4.28 | – | – | – | – | – | – | – | – | – | > 256 | > 256 | – | IC50 [1, 9]: > 256 µM; IC50 [1, 10]: > 256 µM; IC50 [2, 12]: < 8 µM; IC50 [3, 13]: > 256 µM; IC50 [3, 14]: > 256 µM; IC50 [4, 16]: > 256 µM; IC50 [6, 19]: > 256 µM; IC50 [8, 23]: > 256 µM
7 | COC1O[C@]23C=C[C@@H]4[C@@]1(CC[C@]1(C)[C@@H]([C@H](C)C[C@H](C=C(C)C)OC)CC[C@@]41C)[C@@H]2CC[C@H](O)C3(C)C (some centres unmarked) [Compound 16] | > 256 | > 256 | > 256 | > 256 | > 256 | – | – | 97.9 | 64 to 256 | – | – | – | – | – | – | – | – | – | – | – | IC50 [1, 9]: > 256 µM; IC50 [1, 10]: > 256 µM; IC50 [3, 13]: > 256 µM; IC50 [3, 14]: > 256 µM; IC50 [4, 16]: > 256 µM; IC50 [6, 19]: > 256 µM; IC50 [7, 21]: > 256 µM; IC50 [7, 22]: > 256 µM; IC50 [8, 23]: > 256 µM
8 | COC1O[C@]23C=C[C@@H]4[C@@]1(CC[C@]1(C)[C@@H]([C@H](C)C/C=C/C(C)(C)OC)CC[C@@]41C)[C@@H]2CC[C@H](O)C3(C)C (some centres unmarked) [Compound 17] | – | – | – | – | – | > 256 | > 256 | 12.2 | – | > 256 | > 256 | > 256 | > 256 | > 256 | > 256 | > 256 | > 256 | 9.4 | – | > 256 | evaluation of ability to inhibit cell growth activity (IC50) [2, 37]: ◯; evaluation of ability to inhibit cell growth activity (IC50) ([7]; MDA-MB-468 cells, grade of the IC50 of Table 2): ◯; IC50 [8, 36]: > 256 µM
9 | CO[C@H]1O[C@]23C=C[C@@H]4[C@@]1(CC[C@]1(C)[C@@H]([C@H](C)C[C@H](C=C(C)C)OC)CC[C@@]41C)[C@@H]2CC[C@H](O)C3(C)C [Compound 18] | – | – | – | – | – | > 256 | > 256 | > 256 | > 256 | > 256 | > 256 | > 256 | > 256 | > 256 | > 256 | > 256 | > 256 | > 256 | > 256 | > 256 | IC50 [8, 36]: > 256 µM
10 | COC1O[C@]23C=C[C@@H]4[C@@]1(CC[C@]1(C)[C@@H]([C@H](C)C/C=C/C(C)(C)O)CC[C@@]41C)[C@@H]2CC[C@H](O)C3(C)C (some centres unmarked) [Compound 19] | 16.6 | 20.7 | 16 to 64 | 16 to 64 | 16 to 64 | 25 | 16 to 64 | 11.9 | – | 22.6 | 16 to 64 | – | 16 to 64 | – | – | 36.1 | – | 24.4 | 16 to 64 | 45.6 | IC50 [2, 12]: 8 to 16 µM; evaluation of ability to inhibit cell growth activity (IC50) [2, 37]: ◯
